Key:
[1] = biological target: T1, BRPF1-1 (h) bromodomain (Homo sapiens, UniProt P55201); assay: Epigenetic binding assay, Bromodomain; conditions: 10 μM; read-out: % Inhibition of Control Specific Binding
T1 construct: Bromodomain
T1 sequence (P55201 628-732 limits assumed): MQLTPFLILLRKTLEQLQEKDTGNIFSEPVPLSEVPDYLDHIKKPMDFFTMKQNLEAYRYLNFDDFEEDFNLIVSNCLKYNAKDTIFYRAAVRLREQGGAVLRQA

[2] = biological target: T2, Lipoxygenase 12-LO (Homo sapiens, UniProt P18054); assay: Lipoxygenase 12-LO; type: biochemical; conditions: assay year 2015, read-out: % Control Response
T2 construct: Human platelets; from tissue; host or cells: human platelets
T2 sequence (P18054 1-663): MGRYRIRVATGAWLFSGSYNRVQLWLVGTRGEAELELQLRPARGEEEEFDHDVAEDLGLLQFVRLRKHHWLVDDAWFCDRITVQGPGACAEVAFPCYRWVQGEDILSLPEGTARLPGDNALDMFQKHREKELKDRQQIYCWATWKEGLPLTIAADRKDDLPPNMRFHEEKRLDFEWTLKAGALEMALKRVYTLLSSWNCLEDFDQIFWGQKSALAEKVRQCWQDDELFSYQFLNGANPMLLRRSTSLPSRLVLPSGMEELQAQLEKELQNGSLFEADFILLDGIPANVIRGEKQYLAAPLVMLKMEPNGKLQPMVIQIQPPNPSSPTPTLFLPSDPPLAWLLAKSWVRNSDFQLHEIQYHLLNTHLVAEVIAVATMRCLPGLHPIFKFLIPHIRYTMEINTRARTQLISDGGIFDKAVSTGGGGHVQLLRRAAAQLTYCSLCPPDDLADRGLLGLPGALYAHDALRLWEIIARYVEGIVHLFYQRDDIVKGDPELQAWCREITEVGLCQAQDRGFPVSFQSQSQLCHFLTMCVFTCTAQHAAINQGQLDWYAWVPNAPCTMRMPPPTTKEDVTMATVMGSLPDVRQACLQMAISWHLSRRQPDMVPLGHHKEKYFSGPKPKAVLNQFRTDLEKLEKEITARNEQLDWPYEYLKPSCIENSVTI
Experimental: (§1) The in vitro pharmacological studies were conducted by Eurofins PanLab (Taiwan) using the parameters shown in Table 13 with respect to appropriate literature references.

[3] = biological target: PRDM9 (h) (Homo sapiens, UniProt Q9NQV7); assay: Epigenetic enzyme assay, Methyltransferases (MTs); type: biochemical; conditions: for inhibition at 10 µM: read-out: % Inhibition of Control Values
Chain of PRDM9 (h) (Q9NQV7 whole entry): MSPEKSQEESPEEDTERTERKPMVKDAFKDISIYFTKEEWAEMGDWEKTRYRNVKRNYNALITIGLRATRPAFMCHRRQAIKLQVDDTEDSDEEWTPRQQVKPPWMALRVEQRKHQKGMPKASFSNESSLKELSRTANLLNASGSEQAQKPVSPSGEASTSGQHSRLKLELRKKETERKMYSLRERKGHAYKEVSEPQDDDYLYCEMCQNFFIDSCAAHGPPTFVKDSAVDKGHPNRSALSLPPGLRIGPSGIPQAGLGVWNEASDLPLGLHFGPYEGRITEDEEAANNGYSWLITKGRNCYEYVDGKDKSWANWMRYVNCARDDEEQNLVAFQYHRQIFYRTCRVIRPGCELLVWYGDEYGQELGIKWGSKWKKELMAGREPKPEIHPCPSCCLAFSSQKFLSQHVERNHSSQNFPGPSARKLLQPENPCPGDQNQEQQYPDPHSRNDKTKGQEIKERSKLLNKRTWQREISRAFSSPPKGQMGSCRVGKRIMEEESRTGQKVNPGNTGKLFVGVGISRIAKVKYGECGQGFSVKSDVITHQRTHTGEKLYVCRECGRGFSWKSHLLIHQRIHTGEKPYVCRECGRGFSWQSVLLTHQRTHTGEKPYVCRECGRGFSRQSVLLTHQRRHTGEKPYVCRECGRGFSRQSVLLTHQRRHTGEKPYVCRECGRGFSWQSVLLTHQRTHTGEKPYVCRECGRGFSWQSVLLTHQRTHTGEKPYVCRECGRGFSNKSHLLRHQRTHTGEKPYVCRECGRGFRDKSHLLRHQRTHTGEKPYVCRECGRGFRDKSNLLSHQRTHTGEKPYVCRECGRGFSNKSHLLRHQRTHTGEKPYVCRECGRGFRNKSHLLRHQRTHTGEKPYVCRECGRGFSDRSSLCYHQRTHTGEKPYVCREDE

[4] = biological target: T3, TAF1(1) (h) bromodomain (Homo sapiens, UniProt P21675); assay: Epigenetic binding assay, Bromodomain; conditions: 10 μM; read-out: % Inhibition of Control Specific Binding
T3 construct: Bromodomain
T3 sequence (P21675 1397-1505 limits assumed): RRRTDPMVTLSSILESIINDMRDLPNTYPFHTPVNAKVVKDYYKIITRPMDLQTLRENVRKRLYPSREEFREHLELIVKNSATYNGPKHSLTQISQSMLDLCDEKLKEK

[5] = biological target: Guanidinoacetate N-methyltransferase (h) (Homo sapiens, UniProt Q14353); assay: Epigenetic enzyme assay, Small molecule methyltransferases; type: biochemical; conditions: read-out: % Inhibition of Control Values
[6] = biological target: DNMT3b (Homo sapiens, UniProt Q9UBC3); assay: Epigenetic enzyme assay, DNA methyltransferases (DNMTs); type: biochemical; conditions: for inhibition at 10 µM: read-out: % Inhibition of Control Values
[7] = system: Hs 852.T; assay: OncoPanel cell proliferation assay (10-day); type: cell-based, human; conditions: for EC50 / GI50 / IC50: Homo sapiens, Skin (Melanoma); for EC50: read-out: Cell Count EC50; for GI50: read-out: Cell Count GI50; for IC50: read-out: Cell Count IC50
[8] = biological target: DAPK3/ZIP (substrate histone H3 full length) (Homo sapiens, UniProt O43293); assay: Epigenetic enzyme assay, Kinases; type: biochemical; conditions: read-out: % Inhibition of Control Values
Chain of DAPK3/ZIP (substrate histone H3 full length) (O43293 whole entry): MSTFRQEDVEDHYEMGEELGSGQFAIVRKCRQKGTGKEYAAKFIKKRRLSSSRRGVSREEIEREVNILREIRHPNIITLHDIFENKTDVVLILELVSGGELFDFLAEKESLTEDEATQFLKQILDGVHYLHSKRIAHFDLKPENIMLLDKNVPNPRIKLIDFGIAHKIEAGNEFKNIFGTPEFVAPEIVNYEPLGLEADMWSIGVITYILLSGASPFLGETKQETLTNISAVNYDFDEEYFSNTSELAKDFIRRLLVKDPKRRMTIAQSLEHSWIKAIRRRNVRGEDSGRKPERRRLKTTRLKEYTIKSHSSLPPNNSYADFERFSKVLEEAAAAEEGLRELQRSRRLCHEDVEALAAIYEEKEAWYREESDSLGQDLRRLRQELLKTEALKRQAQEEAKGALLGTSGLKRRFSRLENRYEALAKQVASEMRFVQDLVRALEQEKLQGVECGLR

[9] = biological target: Sirtuin 6 (h) (Homo sapiens, UniProt Q8N6T7); assay: Epigenetic enzyme assay, Sirtuins; type: biochemical; conditions: 10 μM; read-out: % Inhibition of Control Values
Chain of Sirtuin 6 (h) (Q8N6T7 whole entry): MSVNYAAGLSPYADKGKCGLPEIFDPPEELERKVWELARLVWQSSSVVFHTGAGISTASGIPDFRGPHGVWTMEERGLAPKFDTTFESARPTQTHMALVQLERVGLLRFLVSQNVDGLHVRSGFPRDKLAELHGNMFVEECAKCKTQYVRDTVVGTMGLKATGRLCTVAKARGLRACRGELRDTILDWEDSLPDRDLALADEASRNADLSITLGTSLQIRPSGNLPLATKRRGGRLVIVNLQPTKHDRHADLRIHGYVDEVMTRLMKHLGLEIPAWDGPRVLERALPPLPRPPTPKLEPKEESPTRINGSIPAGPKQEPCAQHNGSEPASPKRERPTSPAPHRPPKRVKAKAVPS

[10] = biological target: T4, BAZ2B (h) bromodomain (Homo sapiens, UniProt Q9UIF8); assay: Epigenetic binding assay, Bromodomain; conditions: read-out: % Inhibition of Control Specific Binding
T4 construct: Bromodomain
T4 sequence (Q9UIF8 2060-2164 limits assumed): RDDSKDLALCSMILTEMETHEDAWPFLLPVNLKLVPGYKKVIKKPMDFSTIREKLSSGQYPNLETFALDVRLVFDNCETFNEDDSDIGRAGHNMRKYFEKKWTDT

[11] = system: NF-κB; assay: Transcription Response, NF-κB; type: cell-based, Human
Experimental: as §1

[12] = biological target: T5, Angiotensin AT2 (Homo sapiens, UniProt P50052); assay: Angiotensin AT2 radio ligand binding; conditions: assay year 2015, read-out: % Control Response
T5 construct: expressed in transfected cells; host or cells: CHO-K1 cells
T5 sequence (P50052 1-363): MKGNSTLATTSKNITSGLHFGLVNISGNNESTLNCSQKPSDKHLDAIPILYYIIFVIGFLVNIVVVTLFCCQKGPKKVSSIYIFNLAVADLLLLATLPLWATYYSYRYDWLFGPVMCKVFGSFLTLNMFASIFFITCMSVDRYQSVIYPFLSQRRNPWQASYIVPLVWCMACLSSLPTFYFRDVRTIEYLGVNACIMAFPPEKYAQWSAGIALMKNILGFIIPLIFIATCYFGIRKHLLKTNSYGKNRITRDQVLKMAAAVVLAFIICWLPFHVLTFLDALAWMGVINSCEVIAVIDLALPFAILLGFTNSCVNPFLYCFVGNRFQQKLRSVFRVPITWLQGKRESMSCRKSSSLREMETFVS
Experimental: as §1

[13] = biological target: JARID1A (h) (Homo sapiens, UniProt P29375); assay: Epigenetic enzyme assay, Demethylases (KDMs); type: biochemical; conditions: for inhibition at 10 µM: read-out: % Inhibition of Control Values
[14] = biological target: GCN5L2(h) (Homo sapiens, UniProt Q92830); assay: Epigenetic enzyme assay, Histone acetyltransferases (HATs); type: biochemical; conditions: 10 μM; read-out: % Inhibition of Control Values
Chain of GCN5L2(h) (Q92830 whole entry): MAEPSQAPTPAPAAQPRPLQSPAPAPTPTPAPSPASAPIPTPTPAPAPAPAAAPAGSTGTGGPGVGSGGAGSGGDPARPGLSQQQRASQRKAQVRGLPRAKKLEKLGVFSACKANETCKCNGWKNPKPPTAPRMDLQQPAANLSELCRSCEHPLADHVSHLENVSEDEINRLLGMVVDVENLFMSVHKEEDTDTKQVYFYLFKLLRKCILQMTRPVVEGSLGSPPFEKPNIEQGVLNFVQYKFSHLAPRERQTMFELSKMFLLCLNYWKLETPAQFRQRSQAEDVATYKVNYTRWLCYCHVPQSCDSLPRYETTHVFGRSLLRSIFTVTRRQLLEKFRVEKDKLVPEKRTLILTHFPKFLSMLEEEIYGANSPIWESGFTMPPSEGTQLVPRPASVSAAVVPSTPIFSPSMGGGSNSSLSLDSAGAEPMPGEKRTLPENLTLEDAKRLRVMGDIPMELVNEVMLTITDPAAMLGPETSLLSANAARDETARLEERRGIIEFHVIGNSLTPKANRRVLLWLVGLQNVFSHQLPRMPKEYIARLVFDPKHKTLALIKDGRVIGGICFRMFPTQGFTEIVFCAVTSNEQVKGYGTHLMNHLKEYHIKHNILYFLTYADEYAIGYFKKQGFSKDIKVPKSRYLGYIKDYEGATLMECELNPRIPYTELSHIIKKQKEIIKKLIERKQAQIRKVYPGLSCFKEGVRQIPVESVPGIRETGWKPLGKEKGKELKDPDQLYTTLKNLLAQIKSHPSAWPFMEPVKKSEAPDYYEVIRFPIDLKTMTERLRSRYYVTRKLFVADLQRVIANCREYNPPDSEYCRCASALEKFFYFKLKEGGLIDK

[15] = biological target: PIM1(h) (histone H3 full length substrate) (Homo sapiens, UniProt P11309); assay: Epigenetic enzyme assay, Kinases; type: biochemical; conditions: read-out: % Inhibition of Control Values
Chain of PIM1(h) (histone H3 full length substrate) (P11309 whole entry): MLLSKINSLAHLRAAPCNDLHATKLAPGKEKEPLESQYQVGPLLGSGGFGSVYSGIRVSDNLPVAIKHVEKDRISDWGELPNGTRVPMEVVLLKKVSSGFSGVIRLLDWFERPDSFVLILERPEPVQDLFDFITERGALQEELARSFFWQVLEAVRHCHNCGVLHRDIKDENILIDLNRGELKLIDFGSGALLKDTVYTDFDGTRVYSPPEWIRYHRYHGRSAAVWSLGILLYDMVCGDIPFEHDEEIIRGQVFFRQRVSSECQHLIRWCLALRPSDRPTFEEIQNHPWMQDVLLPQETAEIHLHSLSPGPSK

[16] = system: Catechol-O-Methyl Transferase (COMT); assay: Catechol-O-Methyl Transferase (COMT); type: biochemical, Porcine; conditions: 10 μM; assay year 2015
Experimental: as §1

[17] = biological target: T6, CREBBP (h) bromodomain (Homo sapiens, UniProt Q92793); assay: Epigenetic binding assay, Bromodomain; conditions: for inhibition at 10 µM: read-out: % Inhibition of Control Specific Binding
T6 construct: Bromodomain; Eurofins CEREP (France), contract laboratory
T6 sequence (Q92793 1085-1192 limits assumed): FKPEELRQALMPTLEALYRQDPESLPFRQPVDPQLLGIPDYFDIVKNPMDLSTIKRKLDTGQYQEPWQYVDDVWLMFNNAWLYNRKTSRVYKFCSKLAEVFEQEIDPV

[18] = system: H3K9 ac; assay: Cell-based detection methyl modifications; conditions: read-out: % Inhibition of Control Values
[19] = biological target: HDAC5 (h) (Homo sapiens, UniProt Q9UQL6); assay: Epigenetic enzyme assay, Histone deacetylase (HDACs); type: biochemical; conditions: read-out: % Inhibition of Control Values
Chain of HDAC5 (h) (Q9UQL6 whole entry): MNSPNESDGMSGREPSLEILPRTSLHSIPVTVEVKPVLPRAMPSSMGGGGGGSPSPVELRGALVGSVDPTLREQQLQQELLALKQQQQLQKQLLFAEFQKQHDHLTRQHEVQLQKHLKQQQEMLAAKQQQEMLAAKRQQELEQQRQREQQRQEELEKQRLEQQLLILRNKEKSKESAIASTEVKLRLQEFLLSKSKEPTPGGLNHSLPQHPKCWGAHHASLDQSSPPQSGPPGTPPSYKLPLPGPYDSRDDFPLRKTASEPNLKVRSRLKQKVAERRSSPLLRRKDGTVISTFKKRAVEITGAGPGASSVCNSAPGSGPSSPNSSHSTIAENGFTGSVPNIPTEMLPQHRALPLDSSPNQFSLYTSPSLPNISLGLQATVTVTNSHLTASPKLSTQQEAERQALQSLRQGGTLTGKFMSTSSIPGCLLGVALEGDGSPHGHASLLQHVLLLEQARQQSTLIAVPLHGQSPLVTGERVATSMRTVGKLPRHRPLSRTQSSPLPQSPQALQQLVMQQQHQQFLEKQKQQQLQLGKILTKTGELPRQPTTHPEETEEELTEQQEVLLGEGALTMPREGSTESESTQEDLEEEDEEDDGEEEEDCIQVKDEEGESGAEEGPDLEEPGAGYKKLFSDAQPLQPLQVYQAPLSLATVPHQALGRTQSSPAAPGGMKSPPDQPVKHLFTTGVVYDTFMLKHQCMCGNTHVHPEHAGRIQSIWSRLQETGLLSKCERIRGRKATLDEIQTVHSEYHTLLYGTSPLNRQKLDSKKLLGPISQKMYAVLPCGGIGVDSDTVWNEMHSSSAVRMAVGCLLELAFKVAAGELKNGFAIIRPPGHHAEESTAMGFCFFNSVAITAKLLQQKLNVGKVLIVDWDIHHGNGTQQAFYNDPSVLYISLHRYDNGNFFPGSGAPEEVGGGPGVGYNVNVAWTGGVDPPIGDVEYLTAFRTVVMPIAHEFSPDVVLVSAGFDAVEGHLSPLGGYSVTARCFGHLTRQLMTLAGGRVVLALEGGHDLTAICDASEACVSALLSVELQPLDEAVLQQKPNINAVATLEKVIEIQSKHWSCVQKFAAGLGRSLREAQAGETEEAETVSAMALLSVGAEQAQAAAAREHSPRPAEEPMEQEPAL

With `CC(C)=CCC[C@H](CO)[C@@H]1CC[C@@H](C)c2c1cc(C)c(O)c2O` [Compound 1, 7,8,18-trihydroxyserrulat-14-ene] the inhibition at 10 µM [1] was -25%, the remaining activity at 10 µM [2] was 60% and the inhibition at 10 µM [3] was 9%. For the same molecule, the inhibition at 10 µM [4] was 48%, the inhibition at 10 µM [5] was 8% and the inhibition at 10 µM [6] was -3%. The “Relative cell count (%) Mean” value ([7]; 3.00E+00 microM) was 41.6%, the “Relative cell count (%) Mean” value ([7]; 3.00E+01 microM) was 2.7% and the “Relative cell count (%) Mean” value ([7]; 3.01E−01 microM) was 95.3%. The “Relative cell count (%) Mean” value ([7]; 3.01E−02 microM) was 94.5%, the “Relative cell count (%) Mean” value ([7]; 3.02E−03 microM) was 104.5% and the “Relative cell count (%) Mean” value ([7]; 9.49E+00 microM) was 13.1%. The “Relative cell count (%) Mean” value ([7]; 9.51E−01 microM) was 85.5%, the “Relative cell count (%) Mean” value ([7]; 9.52E−02 microM) was 92.2% and the “Relative cell count (%) Mean” value ([7]; 9.53E−03 microM) was 100.2%. The “Relative cell count (%) Mean” value ([7]; 9.55E−04 microM) was 104.3%, the EC50 [7] was 2.49 µM and the GI50 [7] was 2.42 µM. It also gave an IC50 [7] of 2.56 µM, an inhibition at 10 µM [8] of 4% and an inhibition at 10 µM [9] of 2%. The inhibition at 10 µM [10] was 58%, the “Resp Av %” value ([11]; Antagonist, Conc 0.001 μM) was −25% and the “Resp Av %” value ([11]; Antagonist, Conc 0.01 μM) was −5%. The “Resp Av %” value ([11]; Antagonist, Conc 0.1 μM) was 0%, the “Resp Av %” value ([11]; Antagonist, Conc 1 μM) was 17% and the “Resp Av %” value ([11]; Antagonist, Conc 10 μM) was 103%. It also gave an IC50 ([11]; Homo sapiens, Antagonist) of 1.4 µM, an IC50 ([11]; Homo sapiens, transcription response NF-κB) of 1.36 µM and an IC50 ([11]; transcription response NF-κB) of 0.69 µM. For the same molecule, the remaining activity at 10 µM [12] was 29%, the “% Inhibition of Control Values” ([13]; 10 μM) was “significant inhibitory activity” and the inhibition at 10 µM ([13]; 10 μM) was 64%. For the same molecule, the IC50 ([13]; Table 11, inhibition/concentration-response curve, read-out: IC50) was 9.6 µM, the inhibition at 10 µM [14] was 11% and the inhibition at 10 µM [15] was 22%. The “% Control Response” value [16] was 0%, the “% Inhibition of Control Specific Binding” value ([17]; 10 μM) was “significant inhibitory activity” and the inhibition at 10 µM ([17]; 10 μM) was 65%. The IC50 ([17]; Table 9, inhibition/concentration-response curve) was 3.4 µM, the inhibition at 10 µM [18] was 17% and the inhibition at 10 µM [19] was -3%.

`CC(C)=CCC[C@@H]1C(O)Oc2c(C)cc(O)c3c2[C@H]1CC[C@H]3C` (stereo partly drawn) [Compound 2, 5,18-epoxyserrulat-14-en-8,18-diol] showed an inhibition at 10 µM [1] of -25%, a remaining activity at 10 µM [2] of 40% and an inhibition at 10 µM [3] of 5%. The inhibition at 10 µM [4] was 17%, the inhibition at 10 µM [5] was -1% and the inhibition at 10 µM [6] was -17%. The EC50 [7] was 15.4 µM, the GI50 [7] was 14.7 µM and the IC50 [7] was 15.4 µM. The inhibition at 10 µM [8] was 9%, the inhibition at 10 µM [9] was 6% and the inhibition at 10 µM [10] was 23%. For the same molecule, the “Resp Av %” value ([11]; Antagonist, Conc 0.001 μM) was −7%, the “Resp Av %” value ([11]; Antagonist, Conc 0.01 μM) was −7% and the “Resp Av %” value ([11]; Antagonist, Conc 0.1 μM) was −3%. The “Resp Av %” value ([11]; Antagonist, Conc 1 μM) was 10%, the “Resp Av %” value ([11]; Antagonist, Conc 10 μM) was 34% and the IC50 ([11]; Homo sapiens, Antagonist) was > 10 µM. It also gave a remaining activity at 10 µM [12] of 18%, an inhibition at 10 µM ([13]; 10 μM) of -9% and an inhibition at 10 µM [14] of 5%. For the same molecule, the inhibition at 10 µM [15] was 11%, the “% Control Response” value [16] was −1% and the inhibition at 10 µM ([17]; 10 μM) was 21%. The inhibition at 10 µM [18] was 3% and the inhibition at 10 µM [19] was -2%.

`CC(C)=CCC[C@@H]1COc2c(C)cc(O)c3c2[C@H]1CC[C@H]3C` [Compound 3, 5,18-epoxy-8-hydroxyserrulat-14-ene] gave an inhibition at 10 µM [1] of -4%, a remaining activity at 10 µM [2] of 29% and an inhibition at 10 µM [3] of 4%. It also gave an inhibition at 10 µM [4] of 17%, an inhibition at 10 µM [5] of -1% and an inhibition at 10 µM [6] of -4%. The inhibition at 10 µM [8] was 8%, the inhibition at 10 µM [9] was -4% and the inhibition at 10 µM [10] was 21%. The “Resp Av %” value ([11]; Antagonist, Conc 0.001 μM) was −16%, the “Resp Av %” value ([11]; Antagonist, Conc 0.01 μM) was −11% and the “Resp Av %” value ([11]; Antagonist, Conc 0.1 μM) was −7%. The “Resp Av %” value ([11]; Antagonist, Conc 1 μM) was 1%, the “Resp Av %” value ([11]; Antagonist, Conc 10 μM) was −19% and the IC50 ([11]; Homo sapiens, Antagonist) was > 10 µM. It also gave a remaining activity at 10 µM [12] of 9%, an inhibition at 10 µM ([13]; 10 μM) of 3% and an inhibition at 10 µM [14] of 1%. For the same molecule, the inhibition at 10 µM [15] was 5%, the “% Control Response” value [16] was 3% and the inhibition at 10 µM ([17]; 10 μM) was 17%. It also gave an inhibition at 10 µM [18] of -1% and an inhibition at 10 µM [19] of -1%.

With `CC(C)=CCC[C@H](C)[C@@H]1CC[C@@H](C)c2c1cc(C)c(O)c2O` [Compound 4, 7,8-dihydroxyserrulat-14-ene] the EC50 [7] was 12 µM, the GI50 [7] was 11.6 µM and the IC50 [7] was 12 µM.

Work on `Nc1ncnc2c1ncn2[C@@H]1O[C@H](CSCC[C@H](N)C(=O)O)[C@@H](O)[C@H]1O` [SAH] yielded an IC50 ([3]; read-out: Reference IC50) of 370 µM and an IC50 ([6]; read-out: Reference IC50) of 0.094 µM.
